A short description of data set [1]: Antioxidant activity assessed as ABTS scavenging activity after 6 mins by spectrophotometry. In kind it is physicochemical.
A short description of data set [2]: Antioxidant activity assessed as DPPH scavenging activity after 30 mins by spectrophotometry. In kind it is physicochemical.
A short description of data set [3]: Antioxidant activity assessed as DMPD scavenging activity after 15 mins by spectrophotometry. In kind it is physicochemical.
A short description of data set [4]: Antiinflammatory activity in human erythrocytes assessed as inhibition of hypotonic solution-induced hemolysis after 10 mins by spectrophotometry. The format is functional, cell-based. The conditions noted are these: erythrocyte.

Regarding `O=C(CCc1nc2ccccc2c(=O)[nH]1)N/N=C/c1ccccc1`, the IC50 in data set [1] worked out at 265 uM/ml; in data set [2], 734 uM/ml.
As to `O=C(O)c1cc(O)c(O)c(O)c1` [GALLIC ACID], the figures for the IC50 in data set [3] and in data set [1] were 100 uM/ml and 60 uM/ml, respectively.
With `O=C(CCCc1nc2ccccc2c(=O)[nH]1)N/N=C/c1ccc(Cl)cc1`, the IC50 is given as 67 uM/ml in data set [4] and 353 uM/ml in data set [2].
In the case of `O=C(O)CCCc1nc2ccccc2c(=O)[nH]1`, the IC50 in data set [2] is given as 1250 uM/ml.
Take `O=C1O[C@H]([C@@H](O)CO)C(O)=C1O` [ASCORBIC ACID]: the IC50 was determined as 140 uM/ml in data set [3] and 65 uM/ml in data set [1].
Take `COc1cc(/C=N/NC(=O)CCCc2nc3ccccc3c(=O)[nH]2)ccc1O`: the values for the IC50 in data set [3], in data set [1] and in data set [2] were 280 uM/ml, 115 uM/ml and 236 uM/ml, respectively.
On to `O=C(CCCc1nc2ccccc2c(=O)[nH]1)N/N=C/c1ccc([N+](=O)[O-])cc1`, for which the IC50 turned out to be 52 uM/ml in data set [4], 270 uM/ml in data set [1] and 316 uM/ml in data set [2].
For `O=C(CCCc1nc2ccccc2c(=O)[nH]1)N/N=C/c1ccc(O)cc1`, the IC50 in data set [1] stood at 170 uM/ml; in data set [2], 214 uM/ml.
For `COc1cc(/C=N/NC(=O)CCCc2nc3ccccc3c(=O)[nH]2)cc(O)c1O`, the IC50 in data set [4] amounted to 277 uM/ml; in data set [3], 80 uM/ml; in data set [1], 50 uM/ml; in data set [2] it was 88 uM/ml.
As for `O=C(CCc1nc2ccccc2c(=O)[nH]1)N/N=C/c1ccc([N+](=O)[O-])cc1`, the IC50 in data set [4] was 54 uM/ml; in data set [1], 220 uM/ml; in data set [2], 328 uM/ml.
Turning to `COc1cc(/C=N/NC(=O)CCc2nc3ccccc3c(=O)[nH]2)ccc1O`, the values for the IC50 in data set [3], in data set [1] and in data set [2] were 290 uM/ml, 95 uM/ml and 204 uM/ml, respectively.
Take `COc1cc(/C=N/NC(=O)CCc2nc3ccccc3c(=O)[nH]2)cc(OC)c1O`: the IC50 is given as 530 uM/ml in data set [4], 275 uM/ml in data set [3], 105 uM/ml in data set [1] and 126 uM/ml in data set [2].
For the compound `O=C(O)CCc1nc(O)c2ccccc2n1`, the IC50 in data set [2] is recorded as 1100 uM/ml.
As to `Cc1cc(C(C)(C)C)c(O)c(C(C)(C)C)c1` [BUTYLATED HYDROXYTOLUENE], the IC50 in data set [2] is given as 114 uM/ml.
As for `COc1cc(/C=N/NC(=O)CCc2nc3ccccc3c(=O)[nH]2)cc(O)c1O`, the IC50 in data set [4] amounted to 261 uM/ml; in data set [3] it was 50 uM/ml; in data set [1], 40 uM/ml; in data set [2] it was 104 uM/ml.
For `COc1cc(/C=N/NC(=O)CCc2nc3ccccc3c(=O)[nH]2)cc(OC)c1OC`, in that order: 682 uM/ml, 80 uM/ml, 55 uM/ml and 85 uM/ml.
For `COc1cc(/C=N/NC(=O)CCCc2nc3ccccc3c(=O)[nH]2)cc(OC)c1O`, in that order: 524 uM/ml, 225 uM/ml, 135 uM/ml and 97 uM/ml.
For `O=C(CCc1nc2ccccc2c(=O)[nH]1)N/N=C/c1ccc(O)c(O)c1`, in that order: 255 uM/ml, 105 uM/ml, 40 uM/ml and 113 uM/ml.
For `CC(=O)Oc1ccccc1C(=O)O` [ASPIRIN], the IC50 in data set [4] is 166 uM/ml.
Consider `COc1ccc(/C=N/NC(=O)CCCc2nc3ccccc3c(=O)[nH]2)cc1`, for which the IC50 in data set [3] is 280 uM/ml; in data set [1], 180 uM/ml; in data set [2], 247 uM/ml.
Regarding `O=C(CCc1nc2ccccc2c(=O)[nH]1)N/N=C/c1ccc(Cl)cc1`, the IC50 in data set [4] is 84 uM/ml; in data set [1], 185 uM/ml; in data set [2] it was 381 uM/ml.
For the compound `O=C(CCCc1nc2ccccc2c(=O)[nH]1)N/N=C/c1ccc(O)c(O)c1`, the IC50 in data set [4] is on record as 300 uM/ml; in data set [3], 75 uM/ml; in data set [1], 50 uM/ml; in data set [2] it was 95 uM/ml.
On to `COc1ccc(/C=N/NC(=O)CCc2nc3ccccc3c(=O)[nH]2)cc1`, for which the figures for the IC50 in data set [1] and in data set [2] were 75 uM/ml and 214 uM/ml, respectively.
For `O=C(CCCc1nc2ccccc2c(=O)[nH]1)N/N=C/c1ccccc1`, in that order: 240 uM/ml and 568 uM/ml.
For the compound `COC(=O)CCCc1nc2ccccc2c(=O)[nH]1.Cl`, the IC50 in data set [4] was found to be 975 uM/ml; in data set [1], 280 uM/ml; in data set [2] it was 772 uM/ml.
As for `COC(=O)CCc1nc2ccccc2c(=O)[nH]1.Cl`, the IC50 was 1163 uM/ml in data set [4] and 862 uM/ml in data set [2].
On to `O=C(CCc1nc2ccccc2c(=O)[nH]1)N/N=C/c1cc(O)c(O)c(O)c1`, for which the IC50 in data set [4] is listed as 203 uM/ml; in data set [3], 45 uM/ml; in data set [1], 35 uM/ml; in data set [2], 81 uM/ml.
Consider `O=C(CCc1nc2ccccc2c(=O)[nH]1)N/N=C/c1ccc(O)cc1`, for which the IC50 in data set [3] turned out to be 300 uM/ml; in data set [1] it was 105 uM/ml; in data set [2], 238 uM/ml.
On to `COc1cc(/C=N/NC(=O)CCCc2nc3ccccc3c(=O)[nH]2)cc(OC)c1OC`, for which the IC50 in data set [4] was found to be 613 uM/ml; in data set [3], 85 uM/ml; in data set [1] it was 60 uM/ml; in data set [2], 106 uM/ml.
For `O=C(CCCc1nc2ccccc2c(=O)[nH]1)N/N=C/c1cc(O)c(O)c(O)c1`, the IC50 in data set [4] is 183 uM/ml; in data set [3] it was 45 uM/ml; in data set [1], 40 uM/ml; in data set [2], 78 uM/ml.

The record behind these values is ChEMBL document CHEMBL3397041, “Schiff's bases of quinazolinone derivatives: Synthesis and SAR studies of a novel series of potential anti-inflammatory and antioxidants” (Bioorg Med Chem Lett, 2015).
